≈ marks a conversion by molar mass, not a printed value. Structures can show the parent of a compound that is named as a salt.
Key:
[1] = Solubility in simulated gastric/intestinal fluids and pH media; assay type: physicochemical; conditions: for solubility at 0.5 h / solubility at 4 h / solubility at 24 h / solubility at 0.5 hr / solubility at 4 hr / solubility at 24 hr: thermodynamic from solid
[2] = Dissolution profiles (capsule) in pH1.6 simulated gastric fluid and pH 4 citrate buffer; assay type: physicochemical
Method: Dissolution profiles of the HBr salt (50 mg as free form) in a capsule compared with the free base in pH1.6 simulated gastric fluid and in pH 4 citrate buffer. The HBr salt is better.

Cc1c(F)cccc1NC(=O)Nc1ccc(Cl)c(S(=O)(=O)[C@H]2CCCNC2)c1O [HBr Salt, hydrobromide salt of the enantiomer N-{4-chloro-2-hydroxy-3-[(3S)-3-piperidinylsulfonyl]phenyl}-N′-(3-fluoro-2-methylphenyl)urea]
Solubility ([1]; Phares FaSSIF pH 6.5, 4 hr): 272 µg/mL | solubility at 0.5 h ([1]; SGF (simulated gastric fluid), pH 1.6, simulated gastric fluid, Batch 1, SGF pH 1.6, 0.5 hr): 770 µg/mL | solubility at 4 h ([1]; SGF (simulated gastric fluid), pH 1.6, simulated gastric fluid, Batch 1, SGF pH 1.6, 4 hr): 787 µg/mL | solubility at 24 h ([1]; SGF (simulated gastric fluid), pH 1.6, simulated gastric fluid, Batch 1, SGF pH 1.6, 24 hr): 795 µg/mL | solubility at 0.5 h ([1]; SGF (simulated gastric fluid), pH 1.6, simulated gastric fluid, Batch 2, SGF pH 1.6, 0.5 hr): 414 µg/mL | solubility at 4 h ([1]; SGF (simulated gastric fluid), pH 1.6, simulated gastric fluid, Batch 2, SGF pH 1.6, 4 hr): 647 µg/mL | solubility at 24 h ([1]; SGF (simulated gastric fluid), pH 1.6, simulated gastric fluid, Batch 2, SGF pH 1.6, 24 hr): 800 µg/mL | solubility at 0.5 h ([1]; SGF (simulated gastric fluid), pH 1.6, simulated gastric fluid, Batch 3, SGF pH 1.6, 0.5 hr): 757 µg/mL | Solubility compared with the free base ([1]; at higher pH's and in simulated intestinal fluids): higher than the free base | solubility at 0.5 hr ([1]; fasted-state simulated intestinal fluid (Phares FaSSIF), pH 6.5, fassif, Batch 1, Phares FaSSif pH 6.5, 0.5 hr): 420 µg/mL | solubility at 4 hr ([1]; fasted-state simulated intestinal fluid (Phares FaSSIF), pH 6.5, fassif, Batch 1, Phares FaSSif pH 6.5, 4 hr): 384 µg/mL | solubility at 24 hr ([1]; fasted-state simulated intestinal fluid (Phares FaSSIF), pH 6.5, fassif, Batch 1, Phares FaSSif pH 6.5, 24 hr): 64 µg/mL | solubility at 0.5 hr ([1]; fasted-state simulated intestinal fluid (Phares FaSSIF), pH 6.5, fassif, Batch 2, Phares FaSSif pH 6.5, 0.5 hr): 270 µg/mL | solubility at 4 hr ([1]; fasted-state simulated intestinal fluid (Phares FaSSIF), pH 6.5, fassif, Batch 2, Phares FaSSif pH 6.5, 4 hr): 379 µg/mL | solubility at 24 hr ([1]; fasted-state simulated intestinal fluid (Phares FaSSIF), pH 6.5, fassif, Batch 2, Phares FaSSif pH 6.5, 24 hr): 79 µg/mL | solubility at 0.5 hr ([1]; fasted-state simulated intestinal fluid (Phares FaSSIF), pH 6.5, fassif, Batch 3, Phares FaSSif pH 6.5, 0.5 hr): 459 µg/mL | solubility at 4 hr ([1]; fasted-state simulated intestinal fluid (Phares FaSSIF), pH 6.5, fassif, Batch 3, Phares FaSSif pH 6.5, 4 hr): 227 µg/mL | solubility at 24 hr ([1]; fasted-state simulated intestinal fluid (Phares FaSSIF), pH 6.5, fassif, Batch 3, Phares FaSSif pH 6.5, 24 hr): 56 µg/mL | solubility at 0.5 hr ([1]; fed-state simulated intestinal fluid (Phares FeSSIF), fessif, Batch 1, Phares FeSSIF pH .5, 0.5 hr): 838 µg/mL | solubility at 4 hr ([1]; fed-state simulated intestinal fluid (Phares FeSSIF), fessif, Batch 1, Phares FeSSIF pH .5, 4 hr): 833 µg/mL | solubility at 24 hr ([1]; fed-state simulated intestinal fluid (Phares FeSSIF), fessif, Batch 1, Phares FeSSIF pH .5, 24 hr): 788 µg/mL | solubility at 0.5 hr ([1]; fed-state simulated intestinal fluid (Phares FeSSIF), fessif, Batch 2, Phares FeSSIF pH .5, 0.5 hr): 478 µg/mL | solubility at 4 hr ([1]; fed-state simulated intestinal fluid (Phares FeSSIF), fessif, Batch 2, Phares FeSSIF pH .5, 4 hr): 846 µg/mL | solubility at 24 hr ([1]; fed-state simulated intestinal fluid (Phares FeSSIF), fessif, Batch 2, Phares FeSSIF pH .5, 24 hr): 834 µg/mL | solubility at 0.5 hr ([1]; fed-state simulated intestinal fluid (Phares FeSSIF), fessif, Batch 3, Phares FeSSIF pH .5, 0.5 hr): 724 µg/mL | solubility at 4 hr ([1]; fed-state simulated intestinal fluid (Phares FeSSIF), pH 6.5, fessif, Batch 3, Phares FeSSIF pH .5, 4 hr): 841 µg/mL | solubility at 24 hr ([1]; fed-state simulated intestinal fluid (Phares FeSSIF), pH 6.5, fessif, Batch 3, Phares FeSSIF pH .5, 24 hr): 340 µg/mL | Solubility at higher pH as compared to the free base ([1]; higher pH): improved | solubility at 0.5 h ([1]; pH 2, aqueous buffer, Batch 3, pH 2.0, 0.5 hr): 605 µg/mL | solubility at 4 h ([1]; pH 2, aqueous buffer, Batch 3, pH 2.0, 4 hr): 635 µg/mL | solubility at 24 h ([1]; pH 2, aqueous buffer, Batch 3, pH 2.0, 24 hr): 609 µg/mL | solubility at 24 h ([1]; pH 2, aqueous buffer, pH 2.0, 24 hr): 609 µg/mL | solubility at 0.5 h ([1]; pH 4, aqueous buffer, Batch 3, pH 4.0, 0.5 hr): 685 µg/mL | solubility at 4 h ([1]; pH 4, aqueous buffer, Batch 3, pH 4.0, 4 hr): 670 µg/mL | solubility at 24 h ([1]; pH 4, aqueous buffer, Batch 3, pH 4.0, 24 hr): 609 µg/mL | solubility at 4 h ([1]; pH 4, aqueous buffer, pH 4.0, 4 hr): 670 µg/mL | solubility at 0.5 h ([1]; pH 6, aqueous buffer, Batch 3, pH 6.0, 0.5 hr): 194 µg/mL | solubility at 4 h ([1]; pH 6, aqueous buffer, Batch 3, pH 6.0, 4 hr): 13 µg/mL | solubility at 24 h ([1]; pH 6, aqueous buffer, Batch 3, pH 6.0, 24 hr): 5 µg/mL | solubility at 0.5 h ([1]; pH 8, aqueous buffer, Batch 3, pH 8.0, 0.5 hr): 52 µg/mL | solubility at 4 h ([1]; pH 8, aqueous buffer, Batch 3, pH 8.0, 4 hr): 13 µg/mL | solubility at 24 h ([1]; pH 8, aqueous buffer, Batch 3, pH 8.0, 24 hr): 8 µg/mL | solubility at 0.5 h ([1]; pH 8, aqueous buffer, pH 8.0, 0.5 hr): 52 µg/mL | solubility at 4 h ([1]; pH 8, aqueous buffer, pH 8.0, 4 hr): 13 µg/mL | solubility at 24 h ([1]; pH 8, aqueous buffer, pH 8.0, 24 hr): 8 µg/mL | solubility at 4 hr ([1]; simulated gastric fluid (SGF), pH 1.6, simulated gastric fluid, Batch 3, SGF pH 1.6, 4 hr): 795 µg/mL | solubility at 24 hr ([1]; simulated gastric fluid (SGF), pH 1.6, simulated gastric fluid, Batch 3, SGF pH 1.6, 24 hr): 779 µg/mL | Solubility in simulated intestinal fluids over time ([1]; simulated intestinal fluids, compared with free base): does reduce with time but is still much higher than the equivalent free base solubility | Dissolution profile ([2]; 50 mg as free form in a capsule, pH1.6 simulated gastric fluid and pH 4 citrate buffer, FIGS. 1 and 2): better | Dissolution rate at low gastric pH ([2]; FIG. 1, low gastric pH): enhanced dissolution rate without gelling | Rate of dissolution at an elevated gastric pH ([2]; FIG. 2, elevated gastric pH): greatest rate of dissolution | Dissolution profile at higher pH as compared to the free base ([2]; higher pH): improved

Cc1c(F)cccc1NC(=O)Nc1ccc(Cl)c(S(=O)(=O)[C@H]2CCCNC2)c1O [Micronised free base, N-{4-chloro-2-hydroxy-3-[(3S)-3-piperidinylsulfonyl]phenyl}-N′-(3-fluoro-2-methylphenyl) urea, reference compound]
Solubility ([1]; Phares FaSSIF pH 6.5, 0.5 hr): 9 µg/mL (≈ 20.4 µM) | Solubility ([1]; Phares FaSSIF pH 6.5, 4 hr): 18 µg/mL (≈ 40.7 µM) | Solubility ([1]; Phares FaSSIF pH 6.5, 24 hr): 10 µg/mL (≈ 22.6 µM) | Solubility ([1]; Phares FeSSIF pH 6.5, 0.5 hr): 19 µg/mL (≈ 43 µM) | Solubility ([1]; Phares FeSSIF pH 6.5, 4 hr): 24 µg/mL (≈ 54.3 µM) | Solubility ([1]; Phares FeSSIF pH 6.5, 24 hr): 25 µg/mL (≈ 56.6 µM) | solubility at 0.5 h ([1]; SGF (simulated gastric fluid), pH 1.6, simulated gastric fluid, SGF pH1.6, 0.5 hr): 715 µg/mL (≈ 1620 µM) | solubility at 4 h ([1]; SGF (simulated gastric fluid), pH 1.6, simulated gastric fluid, SGF pH1.6, 4 hr): 808 µg/mL (≈ 1830 µM) | solubility at 24 h ([1]; SGF (simulated gastric fluid), pH 1.6, simulated gastric fluid, SGF pH1.6, 24 hr): 842 µg/mL (≈ 1910 µM) | Solubility ([1]; pH 2.0, 24 hr): 697 µg/mL (≈ 1580 µM) | solubility at 0.5 h ([1]; pH 2, aqueous buffer, pH 2.0, 0.5 hr): 601 µg/mL (≈ 1360 µM) | solubility at 4 h ([1]; pH 2, aqueous buffer, pH 2.0, 4 hr): 662 µg/mL (≈ 1500 µM) | Solubility ([1]; pH 4.0, 0.5 hr): 21 µg/mL (≈ 47.5 µM) | Solubility ([1]; pH 4.0, 4 hr): 23 µg/mL (≈ 52 µM) | Solubility ([1]; pH 4.0, 24 hr): 24 µg/mL (≈ 54.3 µM) | solubility at 24 h ([1]; pH 6, aqueous buffer, pH 6.0, 24 hr): 4 µg/mL (≈ 9.05 µM) | Solubility ([1]; pH 8.0, 0.5 hr): 5 µg/mL (≈ 11.3 µM) | Solubility ([1]; pH 8.0, 4 hr): 5 µg/mL (≈ 11.3 µM) | Solubility ([1]; pH 8.0, 24 hr): 5 µg/mL (≈ 11.3 µM)
